Results on 8 molecules are retold here after patent US10570150B2, “6,7-trans cephalosporin-based probes for detecting bacteria expressing a metallo-beta-lactamase” (priority 2014, dated 2020).

Broadly, the Km is the substrate concentration at which the rate is half of its maximum. For orientation: kcat means the number of substrate molecules converted per active site and unit of time at saturation.

For one data set, the target named is IMP-1 (Serratia marcescens, UniProt P52699). It counts as biochemical, Escherichia coli. The following applies: probe 10 μM, 2 h; for fluorescence enhancement: IMP-1 1 to 200 fmols, 25 μL 1×PBS pH 7.4, room temperature.
Data set [1] addresses T1, KPC-3 (Klebsiella pneumoniae, UniProt Q9F663, H272Y). The data set is classed as biochemical. The following applies: probe 10 μM, 2 h; for fluorescence enhancement: KPC-3 1 to 200 fmols, 25 μL 1×PBS pH 7.4, room temperature; for amount of enzyme giving detectable fluorescence: KPC-3.
The target in the next data set is TEM-1 Bla (Escherichia coli, UniProt P62593). The data set is classed as biochemical. The following applies: TEM-1 Bla 1 to 200 fmols; probe 10 μM, 25 μL 1×PBS pH 7.4, room temperature, 2 h.
Data set [2] relates to VIM-27. In words: Fluorescence of probes after incubation with recombinant VIM-27. The data set is classed as biochemical, Klebsiella pneumoniae. Conditions: probe 10 μM, 2 h; for fluorescence enhancement: VIM-27 1 to 200 fmols, 25 μL 1×PBS pH 7.4, room temperature. As to the method: (§1) The fluorescence of the probes was measured before and after enzyme treatment using enzyme concentrations in the range of about 1 to about 200 fmols. […] CDC-1, a previously reported non-specific probe for β-lactamases employed as a positive control, as described by Xie et al., (2012) J. Nat.

The target of a further data set is NDM-1 (Klebsiella pneumoniae, UniProt C7C422). It counts as biochemical, Escherichia coli. The following applies: probe 10 μM, 2 h; for fluorescence enhancement: NDM-1 1 to 200 fmols, 25 μL 1×PBS pH 7.4, room temperature; for amount of enzyme giving detectable fluorescence: NDM-1.
Data set [3] can be described thus: Spontaneous hydrolysis of probe in PBS buffer. It counts as physicochemical. Conditions: [S]0=20 μM. An excerpt: FIGS. 14A-14G illustrate the spontaneous hydrolysis in buffer of a probe according to the disclosure. FIG. 14A is a schema illustrating the spontaneous hydrolysis of a probe of the disclosure in PBS buffer to release umbelliferone and thereby generate a fluorescent signal. […] Initial concentration of probe, [P]: […] Error bars indicate the standard deviations of three replicate experiments.

The target of a further data set is BlaC (Mycobacterium tuberculosis, UniProt P9WKD3). In words: Fluorescence of probes after incubation with recombinant BlaC. It counts as biochemical. The following applies: BlaC 1 to 200 fmols; probe 10 μM, 25 μL 1×PBS pH 7.4, room temperature, 2 h. The procedure:
as §1

For data set [4], the target named is T1, KPC-3. The following applies: from Lineweaver-Burk plots.
The subject of data set [5] is VIM-27. Kind of data set: Kinetic parameters of probes with recombinant VIM-27 (Lineweaver-Burk plots). Conditions: from Lineweaver-Burk plots.
A further data set has as its system E. coli with IMP-1. Conditions: IMP-1-expressing bacteria; 2 h incubation.
The subject of data set [6] is non-carbapenemase lactamases. Kind of data set: Hydrolysis of probes by non-carbapenemase lactamases.
The test system of data set [7] is [H][C@]1(OCc2ccccc2)C(=O)N2C(C(=O)O)=C(COc3ccc4ccc(=O)oc4c3)CS[C@@]21[H]. Kind of data set: purified protein, by the assay type. Conditions: from Lineweaver-Burk plots.
The test system of data set [8] is [H][C@]1(OC)C(=O)N2C(C(=O)O)=C(COc3ccc4ccc(=O)oc4c3)CS[C@@]21[H]. Kind of data set: purified protein, by the assay type. Conditions: from Lineweaver-Burk plots.
In data set [9] the test system is [H][C@]1(OC(C)C)C(=O)N2C(C(=O)O)=C(COc3ccc4ccc(=O)oc4c3)CS[C@@]21[H]. In words: purified protein, by the assay type. Conditions: from Lineweaver-Burk plots.
Data set [10] deals with [H][C@]1(OC(C)(C)C)C(=O)N2C(C(=O)O)=C(COc3ccc4ccc(=O)oc4c3)CS[C@@]21[H]. Kind of data set: purified protein, by the assay type. Conditions: from Lineweaver-Burk plots.
Data set [11] deals with [H][C@]1(OCC)C(=O)N2C(C(=O)O)=C(COc3ccc4ccc(=O)oc4c3)CS[C@@]21[H]. In words: purified protein, by the assay type. The following applies: from Lineweaver-Burk plots.
Data set [12] relates to [H][C@]1(OS(=O)(=O)c2ccc(C)cc2)C(=O)N2C(C(=O)O)=C(COc3ccc4ccc(=O)oc4c3)CS[C@@]21[H]. Kind of data set: purified protein, by the assay type. The following applies: from Lineweaver-Burk plots.

A value given as a limit tells only on which side of the number the result lay.

With `CO[C@H]1C(=O)N2C(C(=O)O)=C(COc3ccc4ccc(=O)oc4c3)CS[C@H]12` [(s)-CC-1, (6R,7S)-7-methoxy-8-oxo-3-(((2-oxo-2H-chromen-7-yl)oxy)methyl)-5-thia-1-azabicyclo[4.2.0.]oct-2-ene-2-carboxylic Acid], the fluorescence enhancement result is on record as “high fluorescence signals” on IMP-1; “high fluorescence signals” on KPC-3 [1]; “almost no fluorescence enhancement” on TEM-1 Bla; “high fluorescence signals” in the data set on VIM-27 [2]; “high fluorescence signals” on NDM-1; “almost no fluorescence enhancement” at BlaC. In addition, the Spontaneous hydrolysis rate in data set [3] was 7e-08 s⁻¹. The Km on KPC-3 [4] worked out at 67.7 ± 4.9 µM; with VIM-27 [5], 29.2 ± 7 µM. Also, the kcat came out at 1.5 ± 0.05 s⁻¹ at KPC-3 [4] and 1.1 ± 0.1 s⁻¹ in the data set with VIM-27 [5]. In addition, the “number of bacteria detected / detection limit” value with E. coli with IMP-1 is on record as ≤ 10^4 c.f.u.
Turning to `CCO[C@H]1C(=O)N2C(C(=O)O)=C(COc3ccc4ccc(=O)oc4c3)CS[C@H]12` [(s)-CC-2, (6R,7S)-7-ethoxy-8-oxo-3-(((2-oxo-2H-chromen-7-yl)oxy)methyl)-5-thia-1-azabicyclo[4.2.0]oct-2-ene-2-carboxylic Acid], the fluorescence enhancement result at IMP-1 is given as “high fluorescence signals”; at KPC-3 [1], “high fluorescence signals”; at TEM-1 Bla, “almost no fluorescence enhancement”; in the data set on VIM-27 [2] it was “high fluorescence signals”; on NDM-1, “high fluorescence signals”; on BlaC it was “almost no fluorescence enhancement”. Also, in data set [3], the Spontaneous hydrolysis rate was 5.9e-07 s⁻¹. Moreover, the Km on KPC-3 [4] was 39.1 ± 1.3 µM; with VIM-27 [5], 23 µM. The kcat on KPC-3 [4] was 0.3 ± 0.05 s⁻¹; with VIM-27 [5] it was 0.71 ± 0.0 s⁻¹.
Regarding `CC(C)O[C@H]1C(=O)N2C(C(=O)O)=C(COc3ccc4ccc(=O)oc4c3)CS[C@H]12` [(s)-CC-3, (6R,7S)-7-isopropoxy-8-oxo-3-(((2-oxo-2H-chromen-7-yl)oxy)methyl)-5-thia-1-azabicyclo[4.2.0]oct-2-ene-2-carboxylic Acid], the fluorescence enhancement entry at IMP-1, with VIM-27 [2] and on NDM-1 was “fluorescence enhancement” in each case. For the same molecule, at KPC-3 [1], the “amount of enzyme giving detectable fluorescence” value (“amount” for short) is recorded as 200 fmol. In [3], the Spontaneous hydrolysis rate was 4.8e-07 s⁻¹. For the same molecule, the Km at KPC-3 [4] stood at 250 ± 235 µM; in the data set with VIM-27 [5] it was 61.3 ± 8.8 µM. The values for the kcat on KPC-3 [4] and in the data set with VIM-27 [5] were 0.2 ± 0.17 s⁻¹ and 0.5 ± 0.04 s⁻¹, respectively.
As to `CC(C)(C)O[C@H]1C(=O)N2C(C(=O)O)=C(COc3ccc4ccc(=O)oc4c3)CS[C@H]12` [(s)-CC-4, (6R,7S)-7-(tert-butoxy)-8-oxo-3-(((2-oxo-2H-chromen-7-yl)oxy)methyl)-5-thia-1-azabicyclo[4.2.0]oct-2-ene-2-carboxylic Acid], on IMP-1, the fluorescence enhancement entry is recorded as “high specificity for IMP-1”. At NDM-1, the “amount” value is reported as “about 200 fmol”. Moreover, the Spontaneous hydrolysis rate in data set [3] was 5.4e-07 s⁻¹. Further, on KPC-3 [4], the Km was determined as 121 ± 85 µM and the kcat is 0.2 ± 0.1 s⁻¹. Moreover, the “hydrolysis by non-carbapenemase lactamases” value in data set [6] is “No hydrolysis”. For the same molecule, in the data set on VIM-27 [5], the Km is 91.6 ± 10.1 µM and the kcat was determined as 0.2 ± 0.01 s⁻¹. For the same molecule, the “number of bacteria detected / detection limit” value in the data set on E. coli with IMP-1 was “about 1×10^5 c.f.u”.
Consider `O=C(O)C1=C(COc2ccc3ccc(=O)oc3c2)CS[C@@H]2[C@@H](OCc3ccccc3)C(=O)N12` [(s)-CC-5, (6R,7S)-7-(benzyloxy)-8-oxo-3-(((2-oxo-2H-chromen-7-yl)oxy)methyl)-5-thia-1-azabicyclo[4.2.0]oct-2-ene-2-carboxylic Acid], for which the fluorescence enhancement entry at IMP-1 is “high fluorescence signals”; at KPC-3 [1], “high fluorescence signals”; on TEM-1 Bla, “almost no fluorescence enhancement”; in the data set on VIM-27 [2], “high fluorescence signals”; on NDM-1, “high fluorescence signals”; on BlaC, “almost no fluorescence enhancement”. The molecule further returned a Spontaneous hydrolysis rate in data set [3] of 2.7e-07 s⁻¹. The Km is 5.2 ± 0.5 µM at KPC-3 [4] and 145 ± 100 µM in the data set with VIM-27 [5]. Moreover, the results for the kcat at KPC-3 [4] and in the data set on VIM-27 [5] were 1.1 ± 0.01 s⁻¹ and 3.4 ± 1.5 s⁻¹, respectively. The “hydrolysis by non-carbapenemase lactamases” value in data set [6] is given as “no hydrolysis”.
In the case of `Cc1ccc(S(=O)(=O)O[C@H]2C(=O)N3C(C(=O)O)=C(COc4ccc5ccc(=O)oc5c4)CS[C@H]23)cc1` [(s)-CC-6, (6R,7S)-8-oxo-3-(((2-oxo-2H-chromen-7-yl)oxy)methyl)-7-(tosyloxy)-5-thia-1-azabicyclo[4.2.0]oct-2-ene-2-carboxylic Acid], the fluorescence enhancement entry at IMP-1, in the data set with VIM-27 [2] and on NDM-1 was “fluorescence enhancement” each time. Besides, the “amount” value is given as no more than 1.0 fmol at IMP-1 (IMP-1), 200 fmol at KPC-3 [1], no more than 1.0 fmol in the data set on VIM-27 [2] (VIM-27) and no more than 1.0 fmol on NDM-1. Besides, the Spontaneous hydrolysis rate in data set [3] came out at 2.6e-07 s⁻¹. For the same molecule, the Km at KPC-3 [4] came out at 18.7 ± 7.8 µM; with VIM-27 [5], 14.1 ± 1.2 µM. Moreover, the turnover number (kcat) turned out to be 0.3 ± 0.05 s⁻¹ on KPC-3 [4] and 3.9 ± 0.1 s⁻¹ in the data set on VIM-27 [5].
In the case of IMP-1 (Serratia marcescens), the Km in data set [7] (other: IMP-1) was 3.6 ± 0.1 µM; in data set [8] (other: IMP-1) it was 7.8 ± 0.2 µM; in data set [9] (other: IMP-1) it was 3.2 ± 0.07 µM; in data set [10] (other: IMP-1), 9.4 ± 1.3 µM; in [11] (other: IMP-1), 12.9 ± 1.0 µM; in [12] (other: IMP-1), 3.4 ± 0.4 µM. Also, the kcat in data set [7] (other: IMP-1) was 4.2 ± 0.03 s⁻¹; in [8] (other: IMP-1), 12.2 ± 0.1 s⁻¹; in data set [9] (other: IMP-1), 8.0 ± 0.04 s⁻¹; in [10] (other: IMP-1), 2.1 ± 0.01 s⁻¹; in [11] (other: IMP-1) it was 16.6 ± 0.1 s⁻¹; in [12] (other: IMP-1), 2.2 ± 0.02 s⁻¹. Also, the kcat/Km in data set [7] (other: IMP-1) was 1.2 × 10^6 s^−1M^−1; in data set [8] (other: IMP-1), 1.6 × 10^6 s^−1M^−1; in data set [9] (other: IMP-1) it was 2.5 × 10^6 s^−1M^−1; in data set [10] (other: IMP-1) it was 2.2 × 10^5 s^−1M^−1; in data set [11] (other: IMP-1), 1.3 × 10^6 s^−1M^−1; in [12] (other: IMP-1) it was 6.6 × 10^5 s^−1M^−1.
As to NDM-1 (Klebsiella pneumoniae), the Km in data set [7] (other: NDM-1) was determined as 26.7 ± 0.2 µM; in [8] (other: NDM-1), 12.0 ± 0.7 µM; in [9] (other: NDM-1), 6.0 ± 3.5 µM; in data set [10] (other: NDM-1), 58.6 ± 16.0 µM; in data set [11] (other: NDM-1) it was 14.9 ± 2.7 µM; in data set [12] (other: NDM-1), 4.7 ± 0.3 µM. In addition, the kcat in data set [7] (other: NDM-1) was found to be 0.3 ± 0.0 s⁻¹; in data set [8] (other: NDM-1) it was 0.2 ± 0.02 s⁻¹; in data set [9] (other: NDM-1), 0.1 ± 0.01 s⁻¹; in [10] (other: NDM-1), 0.3 ± 0.04 s⁻¹; in data set [11] (other: NDM-1), 0.3 ± 0.01 s⁻¹; in data set [12] (other: NDM-1), 1.9 ± 0.06 s⁻¹. Besides, the kcat/Km in data set [7] (other: NDM-1) is listed as 1.0 × 10^4 s^−1M^−1; in [8] (other: NDM-1) it was 2.0 × 10^4 s^−1M^−1; in [9] (other: NDM-1), 2.0 × 10^4 s^−1M^−1; in data set [10] (other: NDM-1), 5.1 × 10^3 s^−1M^−1; in data set [11] (other: NDM-1), 1.7 × 10^4 s^−1M^−1; in [12] (other: NDM-1) it was 4.0 × 10^5 s^−1M^−1.
